Test results published in patent US5043328A, “Formulations containing unsaturated fatty acids for the synthesis of prostaglandins and hydroxy-fatty acids in biological systems” (priority 1986, dated 1991).
Where two headings read alike, the source gives them in different places.

Legend:
[1] = for Stability (% of remaining arachidonic acid by Method 1): 24 h 37° C.; for Stability (% remaining fatty acid by Method 1): 1440 min; for undesired decomposition / byproducts of polyunsaturated fatty acid (arachidonic acid) with added stimulator: aqueous medium, result in words
Protocol: Method 1: Investigation of the Stability of Unsaturated Fatty Acids in the Formulations
The stabilizing action of substances on polyunsaturated fatty acids was investigated as follows:
Test A for Water-Soluble Substances:
0.125 mg of unsaturated fatty acid or Na salt (see tables) (sodium arachidonate, from Sigma, Munich, Germany) is dissolved in 0.05 ml of water. 0.2 ml of aqueous solution which contains 2 mg of stabilizer and can additionally contain 2 mg of stimulator is mixed in (cf. Table 1), 0.1 ml is then taken out immediately, extracted and analysed (see below). Further processing according to modification 1 or 2.
Modification 1 for Aqueous Solutions
After 24 hours incubation at 37° C., 0.1 ml is again taken, extracted and analysed (see below).
Modification 2 for Solid Mixtures (Lyophilisates)
The test solution is lyophilized, the lyophilisate is incubated for 24 hours at 37° C. and then dissolved again in the previous quantity of water, and 0.1 ml is taken, extracted and analysed (see below).
Test B for Water-Insoluble Substances:
0.125 mg of unsaturated fatty acid (arachidonic acid, 5,8,11,14,17-eicosapentaenoic acid or 8,11,14-eicosatrienoic acid, from Sigma, Munich) is dissolved in 0.05 ml of ethanol or dimethyl sulfoxide. 0.2 ml of ethanol (or dimethyl sulfoxide) which contains 2 mg of stabilizer and can additionally contain 2 mg of the stimulator (cf. Table 1) is added thereto, and 0.1 ml is taken immediately and, as below, extracted and analysed. Further treatment according to modification 1 or 2.
Modification 1 for Solutions
After 24 hours' incubation at 37° C., 0.1 ml is again taken, mixed with 0.1 ml of water, extracted and analysed.
Modification 2 for Solid Mixtures
The remaining solution is freed of solvent, incubated for 24 hours at 37° C. and then dissolved again in 0.15 ml of solvent, and 0.1 ml is taken, mixed with 0.1 ml of water, extracted and analysed.
0.05 ml of 1.2M aqueous citric acid solution is added to the samples obtained, and the samples are extracted with twice 0.5 ml of ethyl acetate, the ethyl acetate is removed from the combined extracts and the residue is dissolved in 0.8 ml of methanol and analysed by means of high-pressure liquid chromatography (HPLC) (Rad Pak C-18 column, 100×8 mm, from Waters, Konigstein, Germany, 1.5 ml/minute, solvent 800 ml of methanol, 200 ml of water and 0.1 ml of glacial acetic acid). The separation is monitored with a commercially available UV detector at 206 nm.
The prostaglandins PGE2, PGF2 alpha and PGD2 as products from arachidonic acid where quantified by means of method 2, and the sum was related as "total prostaglandin" to 100%. The quantity of "total prostaglandin" formed without the addition of a stimulator was set at f=1; the quantity formed after stimulation was related thereto. f=2 or f=3 therefore means twice or three times the stimulation under the conditions of method 2. The stability of the sample was investigated by means of method 1 (right-hand column). […] Values greater than 25-28% therefore represent a stabilization, and values smaller than 25-28% represent a destabilization. Example No. 1 was carried out without a stimulator.

[2] = target: T1, enzyme (from seminal vesicles of sheep) (Ovis aries, UniProt P05979); settings: for PGD2 % / PGE2 % / PGF2alpha % / Stimulation: Table 1; for PGD2 % / PGE2 % / PGF2alpha %: share of total prostaglandin (=100%); for relative total prostaglandin f: seminal vesicle enzyme, 10 min, pH 8
T1 sequence (P05979 25-600): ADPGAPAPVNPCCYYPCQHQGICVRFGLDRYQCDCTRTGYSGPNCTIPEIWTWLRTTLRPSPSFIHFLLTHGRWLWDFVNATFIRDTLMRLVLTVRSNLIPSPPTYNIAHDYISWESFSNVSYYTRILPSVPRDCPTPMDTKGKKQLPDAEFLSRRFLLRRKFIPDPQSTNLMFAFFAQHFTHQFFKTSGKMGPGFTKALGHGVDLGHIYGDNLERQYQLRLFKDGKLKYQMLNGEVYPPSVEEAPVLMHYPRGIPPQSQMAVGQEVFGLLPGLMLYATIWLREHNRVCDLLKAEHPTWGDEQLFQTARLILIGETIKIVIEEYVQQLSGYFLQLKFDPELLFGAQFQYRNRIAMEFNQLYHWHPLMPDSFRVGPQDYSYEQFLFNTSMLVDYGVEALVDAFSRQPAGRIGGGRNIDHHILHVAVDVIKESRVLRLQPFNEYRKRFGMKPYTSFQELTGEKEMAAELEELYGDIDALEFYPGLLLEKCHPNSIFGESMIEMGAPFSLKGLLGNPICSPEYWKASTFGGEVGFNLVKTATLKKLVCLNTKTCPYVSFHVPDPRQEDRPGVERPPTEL
Protocol: Method 2: Prostaglandin Synthesis
0.3 ml of 0.03M potassium phosphate buffer of pH=8.0 contains 0.5 mg of enzyme (from seminal vesicles of sheep) (Biochemistry 10 (1971) 2372) or homogenate of the inner kidney medulla (Life Sciences 26 (1980) 765), 2.75 μg of ^14 C-arachidonic acid (0.5 μCi) and 0.5 mg of stimulator, and, if appropriate, 0.5 mg of stabilizer substance (see Table 1). After 10 minutes' incubation at 37° C., the reaction is stopped with 0.05 ml of 1.2M citric acid and the mixture is extracted with twice 0.5 ml of ethyl acetate, the combined extracts are freed of solvent, and the residue is dissolved in 0.2 ml of methanol, diluted 1:1 with water and separated by HPLC (nucleosil C-18 column, 125×4.6 mm, from Bischoff, Leonberg, Germany, solvent 300 ml of acetonitrile, 700 ml of water and 1 ml of glacial acetic acid and after 30 minutes pure methanol). The separation of the radioactive fractions is followed by a monitor (LB 504 from Berthold, Wildbad, Germany). The products formed, such as 6-keto-prostaglandin F2alpha, prostaglandin E2, prostaglandin F2alpha and prostaglandin D2, are separated under these conditions.
The prostaglandins PGE2, PGF2 alpha and PGD2 as products from arachidonic acid where quantified by means of method 2, and the sum was related as "total prostaglandin" to 100%. The quantity of "total prostaglandin" formed without the addition of a stimulator was set at f=1; the quantity formed after stimulation was related thereto. f=2 or f=3 therefore means twice or three times the stimulation under the conditions of method 2. The stability of the sample was investigated by means of method 1 (right-hand column). […] Values greater than 25-28% therefore represent a stabilization, and values smaller than 25-28% represent a destabilization. Example No. 1 was carried out without a stimulator. […] The substances test with respect to stabilization (see Method 1 for quantities) were: A) aqueous solution without stabilizer addition, B) ethanolic solution without further addition, C) pyridine solution, D) with rutin, predissolved in dimethyl sulfoxide, dimethyl sulfoxide then stripped off, E) like B) with lecithin, ethanol stripped off, F) like A) with cytochrome c from horse heart (from Boehringer, Mannheim, Germany), G) like A) with methemoglobin (human) (from Sigman, Munich, Germany), H) like A) with bovine serum albumin (from Calbiochem, Frankfurt, Germany), J) like A) or B), but solvent stripped off, K) like J) with cytochrome c, L) like J) with hemoglobin (human) (from Behringwerke, Marburg, Germany), and M) like J) with human serum albumin (from Behringwerke, Marburg, Germany).

[3] = A) aqueous solution without stabilizer addition
[4] = B) ethanolic solution without further addition
[5] = J) like A) or B), but solvent stripped off
[6] = M) like J) with human serum albumin
[7] = H) like A) with bovine serum albumin
[8] = D) with rutin, predissolved in dimethyl sulfoxide, dimethyl sulfoxide then stripped off
[9] = G) like A) with methemoglobin (human)
[10] = F) like A) with cytochrome c from horse heart
[11] = L) like J) with hemoglobin (human)

| Structure (SMILES) | Stability (% of remaining arachidonic acid by Method 1) [1, 3] [%] | Stability (% of remaining arachidonic acid by Method 1) [1, 4] [%] | PGD2 % [2] [%] | PGE2 % [2] [%] | PGF2alpha % [2] [%] | Stability (% of remaining arachidonic acid by Method 1) [1, 7] [%] | relative total prostaglandin f [2] | also measured |
| --- | --- | --- | --- | --- | --- | --- | --- | --- |
| NC(Cc1ccc(O)cc1)C(=O)O (stereo not drawn) [Example 6] | 91 | 100 | 17 | 81 | 2 |  |  | Stability (% of remaining arachidonic acid by Method 1) ([1]; C) pyridine solution): 67%; Stability (% of remaining arachidonic acid by Method 1) [1, 5]: 98%; Stability (% of remaining arachidonic acid by Method 1) ([1]; K) like J) with cytochrome c): 100%; Stability (% of remaining arachidonic acid by Method 1) [1, 6]: 100% |
| NCCc1ccc(O)c(O)c1 [Example 10] | 17 | 95 | 13 | 52 | 35 | 100 |  | Stability (% of remaining arachidonic acid by Method 1) ([1]; C) pyridine solution): 9%; Stability (% of remaining arachidonic acid by Method 1) ([1]; K) like J) with cytochrome c): 98%; Stability (% of remaining arachidonic acid by Method 1) [1, 6]: 100% |
| CC(=O)NC(Cc1ccc(O)cc1)C(N)=O (stereo not drawn) [Example 11] |  |  |  |  |  |  |  | Stabilization [1]: positive; Stimulation ([2]; result in words): positive |
| O=C(O)C=Cc1ccc(O)c(O)c1 [Example 17] | 19 |  | 17 | 70 | 13 | 99 | 5.7 | Stability (% of remaining arachidonic acid by Method 1) [1, 8]: 99%; Stability (% of remaining arachidonic acid by Method 1) [1, 9]: 95%; Stability (% of remaining arachidonic acid by Method 1) [1, 5]: 16%; Stability (% of remaining arachidonic acid by Method 1) [1, 6]: 98% |
| O=C(O)CCc1c[nH]c2ccc(O)cc12 [Example 21] |  |  | 17 | 80 | 3 |  | 5.7 | Stability (% remaining fatty acid by Method 1) [1]: 96% |
| NCCc1c[nH]c2ccc(O)cc12 [Example 22] | 16 | 99 | 20 | 75 | 5 |  | 10.6 | Stability (% of remaining arachidonic acid by Method 1) ([1]; E) like B) with lecithin, ethanol stripped off): 96%; Stability (% of remaining arachidonic acid by Method 1) [1, 10]: 98%; Stability (% of remaining arachidonic acid by Method 1) ([1]; K) like J) with cytochrome c): 98%; Stability (% of remaining arachidonic acid by Method 1) [1, 11]: 100% |
| NCCc1c[nH]c2ccccc12 [Example 23] | 20 |  | 16 | 81 | 3 | 100 |  | Stability (% of remaining arachidonic acid by Method 1) [1, 8]: 100%; Stability (% of remaining arachidonic acid by Method 1) [1, 10]: 98%; Stability (% of remaining arachidonic acid by Method 1) [1, 9]: 97% |
| O=C1N[C@@H](Cc2c[nH]c3ccccc23)C(=O)N[C@H]1Cc1ccc(O)cc1 [Example 32, Cyclo-TrpTyr] |  |  |  |  |  |  |  | Stabilization [1]: positive; Stimulation ([2]; result in words): positive |
| N[C@@H](CS)C(=O)O [Example 33, L-cysteine] |  |  | 27 | 56 | 17 |  |  | Stability (% remaining fatty acid by Method 1) [1]: 94% |
| N[C@@H](CCC(=O)N[C@@H](CS)C(=O)NCC(=O)O)C(=O)O [Example 35, Glutathione] | 0 | 80 | 0 | 100 | 0 | 91 | 13.5 | Stability (% of remaining arachidonic acid by Method 1) ([1]; C) pyridine solution): 0%; Stability (% of remaining arachidonic acid by Method 1) [1, 5]: 0%; Stability (% of remaining arachidonic acid by Method 1) [1, 11]: 92%; undesired decomposition / byproducts of polyunsaturated fatty acid (arachidonic acid) with added stimulator [1]: markedly greater quantity |
| O=C(O)CCCCC1CCSS1 (stereo not drawn) [Example 36, Lipoic acid] |  |  | 8 | 43 | 49 |  |  | undesired decomposition / byproducts of polyunsaturated fatty acid (arachidonic acid) with added stimulator [1]: fully suppressed; stimulation of prostaglandin synthesis with much smaller quantities of undesired byproducts ([2]; mixtures with polyunsaturated fatty acids such as arachidonic acid, result in words): stimulated |
